Test results: ChEMBL document CHEMBL5728837, “Non-fused tricyclic compounds” (2021)

Assay: YAP Reporter Assay: HEK293T cells stably transfected with 8XTBD luciferase reporter and pRLTK in 384-well plates were treated with the test compounds, starting from 3 μM (final concentration in assay plate), 1:3 dilution, and 10 points in quadruplicates. Post 24-hr incubation with compounds at 37° C. and 5% CO2, cells were lysed and 8XTBD-driven firefly luciferase and control TK-driven renilla luciferase activities were measured using Promega Dual-Luciferase Reporter Assay System.Reagents: The reagents used for this study are: DMEM: Invitrogen #11960077, Dual-Glo Luciferase Assay System: Promega-E2980, Puromycin Dihydrochloride: Invitrogen-A1113803, 384-well plate: PerkinElmer-6007480, L-GLUTAMINE: Invitrogen-25030164, Hygromycin B: Invitrogen-10687010, and Penicillin-Streptomycin: Merk-TMS-AB2-CMedia: The media used for this assay were: Culture Medium: DMEM+1 ug/mL puromycin+200 ug/mL hygromycin (with 10% FBS+1 mM L-glutamine); and Assay Medium: DMEM (with 10% FBS+1 mM L-glutamine+1× P/S).Cell Plating: The appropriate media was warmed at 37° C. by water bath: Culture Medium, Assay Medium, 1*D-PBS, 0.05% trypsin-EDTA. The cells were trypsinized after removing all media, then washed with 1*sterile D-PBS and then with 2 ml 0.05% trypsin-EDTA. The cells were then incubated at RT for one minute. Then 10 ml/75 cm2 flask Assay Medium was added to each flask. Using a 10 ml pipette, the cells were then gently resuspended in the media, until the clumps completely disappeared. The cells were then transferred into 50 ml centrifuge tubes and were centrifuged at 800 rpm for 5 mins. The medium was removed and the cells were resuspended with Assay Medium. An aliquot of cells was used to count the cell density (cells/nil). The cell suspension was then diluted with Assay Medium to a concentration of 6×10^4 cells/ml. 50 ul cells suspension was then plated to 384-well plate (PerkinElmer-6007480), 3×10^3 cells/well and the cells were incubated in an incubator at 37° C., 5% CO2.Compound Treatment: In the afternoon (incubation of the plate with 3-4 hrs), the test compounds were added by Echo, starting from 3 uM (final concentration in the assay plate), 1:3 dilution, 10 points, quadruplicates. The plate was placed at 37° C., 5% CO2 incubator for 24 hrs.Detection: The Dual-Glo Luciferase Reagent was prepared by transferring the contents of one bottle of Dual-Glo Luciferase Buffer to one bottle of Dual-Glo Luciferase Substrate to create the Dual-Glo Luciferase Reagent. Mixing was performed by inversion until the substrate was thoroughly dissolved. After mixing, the reagent was aliquoted into 15 ml tubes. In the afternoon (24 hrs post compound treatment), the DMEM+ medium in the 384 well plates were aspirated by Microplate Washer.Measuring firefly luciferase activity: 20 ul Dual-Glo Luciferase Reagent was added to the 384-well plates. The plates were protected from light to prevent interference with the assay. The plates were shaken for 1 min followed centrifuging plates at 1000 rpm for 30 seconds. After waiting at least 10 minutes, the firefly luminescence was measured by Envision.Measuring renilla luciferase activity: 20 ul Stop-Glo Reagent was added to the 384-well plates. The plates were shaken for lmin and then centrifuged at 1000 rpm for 30 seconds. After waiting at least 10 minutes, the renilla luminescence was measured by Envision.
Settings: not given

IC50 | SMILES
in the range around 3000 nM | OCCn1nnc(-c2ccccc2Nc2cccc(C(F)(F)F)c2)n1

Same assay, conditions: HEK-293T, 24 h

SMILES | IC50
OC1(Cn2nnc(-c3ccccc3Nc3ccc(C(F)(F)F)cc3)n2)CNC1 | in the range around 550 nM
Cc1nn(CCO)cc1-c1ccccc1Nc1ccc(C(F)(F)F)cc1 | in the range around 3000 nM
CCc1ccc(Nc2ccccc2-c2nnn(CCO)n2)cc1 | in the range around 550 nM
O=C(Cn1nnc(-c2ccccc2Nc2ccc(C(F)(F)F)cc2)n1)c1ccccc1 | in the range around 3000 nM
OCCn1nnc(-c2ccc(F)cc2Nc2ccc(C(F)(F)F)cc2)n1 | < 100 nM
COc1ccc(-c2nnn(CCO)n2)c(Nc2ccc(C(F)(F)F)cc2)c1 | < 100 nM
OCCn1nnc(-c2cccnc2Nc2ccc(OC(F)(F)F)cc2)n1 | in the range around 550 nM
FC(F)(F)c1ccc(Nc2ccccc2-c2nnn(C3CNC3)n2)cc1 | in the range around 3000 nM
OCCn1nnc(-c2ccccc2Nc2ccccc2F)n1 | in the range around 3000 nM
OCCn1nnc(-c2cccnc2Nc2ccc(C(F)(F)F)cc2)n1 | in the range around 550 nM
O=C(O)Cn1cc(-c2ccccc2Nc2ccc(C(F)(F)F)cc2)cn1 | in the range around 550 nM
OCCCn1nnc(-c2ccccc2Nc2cccc(C(F)(F)F)c2)n1 | in the range around 550 nM
O=C1N[C@H](Cn2nnc(-c3ccccc3Nc3ccc(C(F)(F)F)cc3)n2)CO1 | in the range around 550 nM
C[C@H](c1ccccc1)N1C(=O)OC[C@H]1Cn1nnc(-c2ccccc2Nc2ccc(C(F)(F)F)cc2)n1 | in the range around 550 nM
OCCn1nnc(-c2ccccc2Nc2ccc(OC(F)(F)F)cc2)n1 | < 100 nM
FC(F)(F)c1ccc(Nc2ccccc2-c2nnn(-c3cccnc3)n2)cc1 | in the range around 3000 nM
OCCn1nnc(-c2cc(OC(F)F)ccc2Nc2ccc(C(F)(F)F)cc2)n1 | < 100 nM
FC(F)(F)Oc1ccc(Nc2ccccc2-c2nnn(Cc3ccccn3)n2)cc1 | in the range around 3000 nM
OCCn1nnc(-c2ccccc2Nc2ccc(SC(F)(F)F)cc2)n1 | in the range around 550 nM
OC1(Cn2nnc(-c3ccccc3Nc3ccc(C(F)(F)F)cc3)n2)CCNC1 (centres undefined) | in the range around 550 nM
O[C@@H]1CCC[C@@H]1n1nnc(-c2ccccc2Nc2ccc(C(F)(F)F)cc2)n1 | in the range around 550 nM
FC(F)(F)c1ccc(Nc2ccccc2-c2nnn(CC3COC3)n2)cc1 | in the range around 550 nM
OCCn1nnc(-c2ccccc2Nc2cc(Cl)c(Cl)c(Cl)c2)n1 | in the range around 3000 nM
CCOC(=O)Cn1ncc(-c2ccccc2Nc2cccc(C(F)(F)F)c2)c1C | in the range around 3000 nM

SMILES | IC50
OCCn1nnc(-c2ccccc2Nc2cccc(OC(F)(F)F)c2)n1 | in the range around 550 nM
Cc1c(-c2ccccc2Nc2ccc(C(F)(F)F)cc2)cnn1CCO | in the range around 3000 nM
OC1(Cn2nnc(-c3ccccc3Nc3ccc(C(F)(F)F)cc3)n2)CSC1 | < 100 nM
OC1(Cn2nnc(-c3ccccc3Nc3ccc(C(F)(F)F)cc3)n2)CCCCC1 | in the range around 550 nM
FC(F)(F)c1ccc(Nc2ccccc2-c2nnn(C3COC3)n2)cc1 | < 100 nM
OCCn1nnc(-c2cc(C(F)(F)F)ccc2Nc2ccc(C(F)(F)F)cc2)n1 | in the range around 550 nM
Cc1ccc(-c2nnn(CCO)n2)c(Nc2ccc(C(F)(F)F)cc2)c1 | < 100 nM
[O-][S+]1CC(O)(Cn2nnc(-c3ccccc3Nc3ccc(C(F)(F)F)cc3)n2)C1 (centres undefined) | in the range around 550 nM
FC(F)(F)c1ccc(Nc2ccccc2-c2nnn(CCOC3CCNCC3)n2)cc1 | in the range around 550 nM
OCCn1nnc(-c2ccccc2Nc2ccc(C(F)(F)F)c(Cl)c2)n1 | < 100 nM
OCCn1nnc(-c2ccccc2Nc2ccc(Cl)c(Cl)c2)n1 | in the range around 550 nM
O=C1NCC(Cn2nnc(-c3ccccc3Nc3ccc(C(F)(F)F)cc3)n2)N1 (centres undefined) | in the range around 550 nM
CC(C)(C)OC(=O)N1CCCC(O)(Cn2nnc(-c3ccccc3Nc3ccc(C(F)(F)F)cc3)n2)C1 (centres undefined) | in the range around 3000 nM
CNC(=O)Cn1nnc(-c2ccccc2Nc2ccc(OC(F)(F)F)cc2)n1 | in the range around 550 nM
FC(F)(F)c1ccc(Nc2ccccc2-c2nnn(C3CCOCC3)n2)cc1 | in the range around 550 nM
Cc1ccc(Nc2ccc(C(F)(F)F)cc2)c(-c2nnn(CCO)n2)c1 | < 100 nM
CN(C)CCCn1nnc(-c2ccccc2Nc2ccc(OC(F)(F)F)cc2)n1 | in the range around 3000 nM
COc1ccc(Nc2ccc(C(F)(F)F)cc2)c(-c2nnn(CCO)n2)c1 | < 100 nM
OC(Cn1nnc(-c2ccccc2Nc2ccc(C(F)(F)F)cc2)n1)c1ccccc1 (centres undefined) | in the range around 3000 nM
COC1CCCC1n1nnc(-c2ccccc2Nc2ccc(C(F)(F)F)cc2)n1 (centres undefined) | in the range around 550 nM
OCCn1nnc(-c2ccccc2Nc2cccc(C(F)(F)F)c2)n1 | in the range around 3000 nM
OCCn1nnc(-c2ccccc2Nc2cccc(Cl)c2)n1 | in the range around 3000 nM
OCCn1nnc(-c2ccccc2Nc2ccc(F)cc2)n1 | in the range around 550 nM

The remaining lines, values ahead:

IC50 | SMILES
in the range around 550 nM | FC(F)OCCn1nnc(-c2ccccc2Nc2ccc(C(F)(F)F)cc2)n1
in the range around 550 nM | CC(C)C(=O)Cn1nnc(-c2ccccc2Nc2ccc(C(F)(F)F)cc2)n1
in the range around 550 nM | NCCn1nnc(-c2ccccc2Nc2ccc(C(F)(F)F)cc2)n1
in the range around 550 nM | FCCCn1nnc(-c2ccccc2Nc2ccc(C(F)(F)F)cc2)n1
in the range around 3000 nM | CC(CO)c1nc(-c2ccccc2Nc2ccc(C(F)(F)F)cc2)nn1C (centres undefined)
< 100 nM | C[C@@H](O)[C@H](C)n1nnc(-c2ccccc2Nc2ccc(C(F)(F)F)cc2)n1
< 100 nM | NC(=O)OCCn1nnc(-c2ccccc2Nc2ccc(C(F)(F)F)cc2)n1
in the range around 550 nM | CO[C@H](C)[C@@H](C)n1nnc(-c2ccccc2Nc2ccc(C(F)(F)F)cc2)n1
< 100 nM | C[C@H]([C@@H](C)O)n1nnc(-c2ccccc2Nc2ccc(C(F)(F)F)cc2)n1
< 100 nM | NC(=O)Cn1nnc(-c2ccccc2Nc2ccc(C(F)(F)F)cc2)n1
in the range around 550 nM | O=C(Cn1nnc(-c2ccccc2Nc2ccc(C(F)(F)F)cc2)n1)C1CC1
< 100 nM | CC(CO)n1nnc(-c2ccccc2Nc2ccc(C(F)(F)F)cc2)n1 (centres undefined)
< 100 nM | OC1(Cn2nnc(-c3ccccc3Nc3ccc(C(F)(F)F)cc3)n2)CC1
< 100 nM | CCOC(=O)C(C)n1nnc(-c2ccccc2Nc2ccc(C(F)(F)F)cc2)n1 (centres undefined)
< 100 nM | CC(CN)n1nnc(-c2ccccc2Nc2ccc(C(F)(F)F)cc2)n1 (centres undefined)
< 100 nM | CCC(O)Cn1nnc(-c2ccccc2Nc2ccc(C(F)(F)F)cc2)n1 (centres undefined)
< 100 nM | OC1(Cn2nnc(-c3ccccc3Nc3ccc(C(F)(F)F)cc3)n2)COC1
in the range around 550 nM | CC(=O)NCCCn1nnc(-c2ccccc2Nc2ccc(C(F)(F)F)cc2)n1
in the range around 550 nM | O=C(Cn1nnc(-c2ccccc2Nc2ccc(C(F)(F)F)cc2)n1)NO
in the range around 550 nM | CC(=O)NCCn1nnc(-c2ccccc2Nc2ccc(C(F)(F)F)cc2)n1
< 100 nM | COCCn1nnc(-c2ccccc2Nc2ccc(C(F)(F)F)cc2)n1
